The record followed here is patent publication EP3782997A1, “FUSED PYRIMIDINE COMPOUNDS AND PHARMACEUTICAL COMPOSITIONS THEREOF FOR THE TREATMENT OF FIBROTIC DISEASES” (Galapagos N.V., priority 2019, dated 2021).

pIC50: −log10 of the molar value. Where only a bound is given, the exact number is not on record here.

This experiment concerns the target hENPP2 (Homo sapiens, UniProt Q13822). The experiment can be described thus: Human ENPP2 (hENPP2) biochemical assay using LPC as substrate. The conditions noted are these: 150 µM LPC (palmitoyl 16:0), 37°C for 30 min. The protocol:
The principle of the assay conswasts in quantifying the released choline with an enzymatic method using choline oxidase and peroxidase. Choline oxydation by choline oxydase releases betaine and peroxide. The latter was quantified in presence of HRP that converts the peroxide detection agent TOOS (CAS# 82692-93-1) and 4-aminoantipyrine into quinoneimine dye. The appearance of quinoneimine dye was measured spectrophotometrically at 555 nm and was proportional to the amount of choline released by ENPP2. Inhibition of ENPP2 results in a decrease of the signal.
Compound IC50 values were determined in a hENPP2 (UniProtKB/SwwassProt Sequence ref Q13822) biochemical assay using LPC as substrate.
5 µL of a dilution series of compound, starting from 50 µM highest concentration, 1/3 dilution, was added to the wells. hENPP2 was used at a final concentration of 1 µg/mL or 3 µg/mL (it will be appreciated by the skilled person that the potency read out was independent of the enzyme concentration). The enzyme was diluted in 50 mM Trwas-HCl pH 8.5, 500 mM NaCl, 5 mM KCl, 10 mM CaCl2, 0.1% fatty acid free BSA in a total volume of 10 µL. The reaction was started by the addition of 10 µL of 150 µM LPC (palmitoyl 16:0; Avanti Polar Lipids, Inc., Cat# 855675) diluted in the same buffer as described above and the mixture was incubated at 37°C for 30 min. The reaction was terminated and choline quantified by the addition of a 25 µL of a mixture containing 0.6 U/mL of choline oxidase, 0.6 U/mL of peroxydase, 1.8 mM TOOS, 1.2 mM amino-antipyrine, 20 mM EGTA (stop-developer solution) diluted in the buffer described above. […] was read on an Envision plate reader (PerkinElmer, Inc.) after an incubation of 30 min at room temperature (excitation 555 nm).
`COC(=O)[C@H]1CN(C(=O)c2ccc3[nH]nnc3c2)CC[C@H]1N1Cc2cnc(Nc3cc(C)cc(C)c3)nc2C1` (racemic) [Cpd 137, methyl (3S,4R/3R,4S)-1-(1H-benzotriazole-5-carbonyl)-4-[2-(3,5-dimethylanilino)-5,7-dihydropyrrolo[3,4-d]pyrimidin-6-yl]piperidine-3-carboxylate] had a negative-log IC50 (pIC50) of 7.00 to 11.00.
Consider `Cc1cc(C)cc(Nc2ncc3c(n2)CN(C2CCN(C(=O)c4ccc5[nH]nnc5c4)C(C)C2)C3)c1` (racemic) [compound 34, 1H-benzotriazol-5-yl-[(2S,4S/2R,4R)-4-[2-(3,5-dimethylanilino)-5,7-dihydropyrrolo[3,4-d]pyrimidin-6-yl]-2-methyl-1-piperidyl]methanone], for which the pIC50 is 7.00 to 11.00.
`Cc1cc(C)cc(Nc2ncc3c(n2)CN([C@H]2CCN(C(=O)c4ccc5[nH]nnc5c4)C[C@@H]2C)C3)c1` (racemic) [compound 99, 1H-benzotriazol-5-yl-[(3S,4S/3R,4R)-4-[2-(3,5-dimethylanilino)-5,7-dihydropyrrolo[3,4-d]pyrimidin-6-yl]-3-methyl-1-piperidyl]methanone] showed a pIC50 of 7.00 to 11.00.
Regarding `Cc1cc(C)cc(Nc2ncc3c(n2)CN([C@@H]2CN(C(=O)c4ccc5[nH]nnc5c4)C[C@@H]2F)C3)c1` (racemic) [compound 102, 1H-benzotriazol-5-yl-[(3R,4S/3S,4R)-3-[2-(3,5-dimethylanilino)-5,7-dihydropyrrolo[3,4-d]pyrimidin-6-yl] -4-fluoro-pyrrolidin-1-yl]methanone], the pIC50 was 6.00 to 6.30.
As for `Cc1cc(C)cc(Nc2ncc3c(n2)CCN([C@H]2CN(C(=O)c4ccc5[nH]nnc5c4)C[C@H]2F)C3)c1` (racemic) [compound 103, 1H-benzotriazol-5-yl-[(3S,4R/3R,4S)-3-[2-(3,5-dimethylanilino)-7,8-dihydro-5H-pyrido[4,3-d]pyrimidin-6-yl] -4-fluoro-pyrrolidin-1-yl]methanone], the pIC50 is 7.00 to 11.00.
`COc1cc2[nH]nnc2cc1C(=O)N1CC[C@H](N2Cc3cnc(Nc4cc(C)cc(C)c4)nc3C2)[C@H](C)C1` (racemic) [compound 119, [(3R,4S/3S,4R)-4-[2-(3,5-dimethylanilino)-5,7-dihydropyrrolo[3,4-d]pyrimidin-6-yl]-3-methyl-1-piperidyl]-(6-methoxy-1H-benzotriazol-5-yl)methanone] had a negative logarithm of the IC50 (pIC50) of 7.00 to 11.00.
The molecule `Cc1cc(C)cc(Nc2ncc3c(n2)CN([C@H]2CCN(C(=O)c4cc5nn[nH]c5cc4F)C[C@H]2C)C3)c1` (racemic) [compound 148, [(3R,4S/3S,4R)-4-[2-(3,5-dimethylanilino)-5,7-dihydropyrrolo[3,4-d]pyrimidin-6-yl]-3-methyl-1-piperidyl]-(6-fluoro-1H-benzotriazol-5-yl)methanone] had a pIC50 of 7.00 to 11.00.
As to `Cc1cc(C)cc(Nc2ncc3c(n2)CN([C@H]2CCN(C(=O)c4ccnc(NS(C)(=O)=O)c4)C[C@H]2C)C3)c1` (racemic) [compound 167, N-[4-[(3R,4S/3S,4R)-4-[2-(3,5-dimethylanilino)-5,7-dihydropyrrolo[3,4-d]pyrimidin-6-yl]-3-methyl-piperidine-1-carbonyl]-2-pyridyl]methanesulfonamide], the pIC50 was 7.00 to 11.00.
To `Cc1cc(C)cc(Nc2ncc3c(n2)CN([C@H]2CCN(C(=O)c4c[nH]nn4)C[C@H]2C)C3)c1` (racemic) [compound 172, [(3R,4S/3S,4R)-4-[2-(3,5-dimethylanilino)-5,7-dihydropyrrolo[3,4-d]pyrimidin-6-yl]-3-methyl-1-piperidyl]-(1H-triazol-4-yl)methanone] belongs 7.00 to 11.00; to `Cc1cc(C)cc(Nc2ncc3c(n2)CN(C2CCN(C(=O)c4ccc5[nH]nnc5c4)CC2O)C3)c1` (single isomer, unassigned) [Cpd 110, 1H-benzotriazol-5-yl-[4-[2-(3,5-dimethylanilino)-5,7-dihydropyrrolo[3,4-d]pyrimidin-6-yl]-3-hydroxy-1-piperidyl]methanone], 7.00 to 11.00; to `Cc1cc(C)cc(Nc2ncc3c(n2)CN(C2CN(C(=O)c4ccc5[nH]nnc5c4)CCC2O)C3)c1` (single isomer, unassigned) [Cpd 111, 1H-benzotriazol-5-yl-[3-[2-(3,5-dimethylanilino)-5,7-dihydropyrrolo[3,4-d]pyrimidin-6-yl]-4-hydroxy-1-piperidyl]methanone], 6.00 to 6.30.
Take `COC(=O)[C@H]1CN(C(=O)c2ccc3[nH]nnc3c2)CC[C@@H]1N1Cc2cnc(Nc3cc(C)cc(C)c3)nc2C1` (single isomer, unassigned) [Cpd 136]: the pIC50 was 7.00 to 11.00.
In the case of `CCOc1cc2[nH]nnc2cc1C(=O)N1CC[C@H](N2Cc3cnc(Nc4cc(C)cc(C)c4)nc3C2)C[C@H]1C` (single isomer, unassigned) [Cpd 138], the negative-log IC50 (pIC50) is 7.00 to 11.00.
Turning to `CCOc1cc2[nH]nnc2cc1C(=O)N1CC[C@@H](N2Cc3cnc(Nc4cc(C)cc(C)c4)nc3C2)C[C@H]1C` (single isomer, unassigned) [Cpd 139], the pIC50 is 7.00 to 11.00.
Next, `C[C@@H]1C[C@@H](N2Cc3cnc(Nc4ccc(OC(F)(F)F)cc4)nc3C2)CCN1C(=O)c1ccc2[nH]nnc2c1` (single isomer, unassigned) [Cpd 164]: 7.00 to 11.00; `C[C@@H]1C[C@H](N2Cc3cnc(Nc4ccc(OC(F)(F)F)cc4)nc3C2)CCN1C(=O)c1ccc2[nH]nnc2c1` (single isomer, unassigned) [Cpd 169]: 7.00 to 11.00.
The molecule `Cc1cc(C)cc(Nc2ncc3c(n2)CCN(C2CN(C(=O)c4ccc5[nH]c(=O)oc5c4)C2)C3)c1` [Cpd 1, 6-[3-[2-(3,S-dimethylanilino)-7,8-dihydro-5H-pyrido[4,3-d]pyrimidin-6-yl]azetidine-1-carbonyl]-3H-1,3-benzoxazol-2-one] had a pIC50 of 7.00 to 11.00.
Next, `Cc1cc(C)cc(Nc2ncc3c(n2)CN(C2CN(C(=O)c4ccc5[nH]c(=O)oc5c4)C2)C3)c1` [Cpd 3, 6-[3-[2-(3,5-dimethylanilino)-5,7-dihydropyrrolo[3,4-d]pyrimidin-6-yl]azetidine-1-carbonyl]-3H-1,3-benzoxazol-2-one]: 7.00 to 11.00; `Cc1cc(C)cc(Nc2ncc3c(n2)CN(C2CN(C(=O)c4cccc(C(=O)O)c4)C2)C3)c1` [Cpd 25, 3-[3-[2-(3,5-dimethylanilino)-5,7-dihydropyrrolo[3,4-d]pyrimidin-6-yl]azetidine-1-carbonyl]benzoic acid]: < 6.00; `Cc1cc(C)nc(Nc2ncc3c(n2)CN(C2CCN(C(=O)c4ccc5[nH]c(=O)oc5c4)CC2)C3)c1` [Cpd 60, 6-[4-[2-[(4,6-dimethyl-2-pyridyl)amino]-5,7-dihydropyrrolo[3,4-d]pyrimidin-6-yl]piperidine-1-carbonyl]-3H-1,3-benzoxazol-2-one]: 6.30 to 7.00.
As for `Cc1cc(C)cc(Nc2ncc3c(n2)CN(C2CCN(C(=O)c4cnc5[nH]nnc5c4)CC2)C3)c1` [Cpd 66, [4-[2-(3,5-dimethylanilino)-5,7-dihydropyrrolo[3,4-d]pyrimidin-6-yl]-1-piperidyl]-(3H-triazolo[4,5-b]pyridin-6-yl)methanone], the pIC50 was 6.00 to 6.30.
In the case of `Cc1cc(C)cc(Nc2ncc3c(n2)CN(C2CN(C(=O)c4cnc5nn[nH]c5c4)C2)C3)c1` [Cpd 67, [3-[2-(3,5-dimethylanilino)-5,7-dihydropyrrolo[3,4-d]pyrimidin-6-yl]azetidin-1-yl]-(1H-triazolo[4,5-b]pyridin-6-yl)methanone], the pIC50 was < 6.00.
Consider `Cc1cc(C)cc(Nc2ncc3c(n2)CCCN(C2CCN(C(=O)c4cnc5[nH]nnc5c4)CC2)C3)c1` [Cpd 76, [4-[2-(3,5-dimethylanilino)-5,7,8,9-tetrahydropyrimido[5,4-c]azepin-6-yl]-1-piperidyl]-(3H-triazolo[4,5-b]pyridin-6-yl)methanone], for which the pIC50 was < 6.00.
For the molecule `Cc1cc(C)cc(Nc2ncc3c(n2)CN(C2CN(C(=O)c4ccc5[nH]nnc5n4)C2)C3)c1` [Cpd 86, [3-[2-(3,5-dimethylanilino)-5,7-dihydropyrrolo[3,4-d]pyrimidin-6-yl]azetidin-1-yl]-(1H-triazolo[4,5-b]pyridin-5-yl)methanone], the pIC50 was 7.00 to 11.00.
As to `Cc1cc(C)cc(Nc2ncc3c(n2)CCN(C2CCN(C(=O)c4ccc5[nH]nnc5c4)[C@@H](C)C2)C3)c1` (stereo partly drawn) [Cpd 96, 1H-benzotriazol-5-yl-[(2S)-4-[2-(3,5-dimethylanilino)-7,8-dihydro-5H-pyrido[4,3-d]pyrimidin-6-yl]-2-methyl-1-piperidyl]methanone], the pIC50 is 7.00 to 11.00.
As to `Cc1cc(C)cc(Nc2ncc3c(n2)CCN([C@@H]2CCN(C(=O)c4ccc5[nH]nnc5c4)[C@H](C)C2)C3=O)c1` [Cpd 97, 6-[(2R,4R)-1-(1H-benzotriazole-5-carbonyl)-2-methyl-4-piperidyl]-2-(3,5-dimethylanilino)-7,8-dihydropyrido[4,3-d]pyrimidin-5-one], the pIC50 is 6.30 to 7.00.
